The target of the assay is T1, hURAT1 (Homo sapiens, UniProt Q96S37).
T1 sequence (Q96S37 1-553): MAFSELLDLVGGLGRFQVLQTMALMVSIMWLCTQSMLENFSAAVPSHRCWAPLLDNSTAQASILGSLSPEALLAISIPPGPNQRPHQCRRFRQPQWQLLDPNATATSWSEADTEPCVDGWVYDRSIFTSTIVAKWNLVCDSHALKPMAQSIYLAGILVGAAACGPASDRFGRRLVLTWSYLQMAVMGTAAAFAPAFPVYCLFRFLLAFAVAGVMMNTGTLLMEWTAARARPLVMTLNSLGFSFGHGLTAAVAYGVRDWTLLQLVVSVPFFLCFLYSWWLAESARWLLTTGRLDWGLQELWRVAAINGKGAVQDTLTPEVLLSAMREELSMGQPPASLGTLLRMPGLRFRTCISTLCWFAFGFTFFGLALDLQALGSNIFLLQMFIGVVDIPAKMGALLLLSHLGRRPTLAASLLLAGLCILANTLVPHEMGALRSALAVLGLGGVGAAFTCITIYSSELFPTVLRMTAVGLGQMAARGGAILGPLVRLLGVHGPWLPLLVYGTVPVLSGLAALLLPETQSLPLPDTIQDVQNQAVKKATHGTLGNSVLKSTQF
Nature of the assay: Inhibition assay of uric acid transport in HEK293-hURAT1 transfection cell line (14C-uric acid uptake). It counts as cell-based. As to conditions: for inhibition at 0.5 µM: read-out: Inhibitory rates of uric acid transport, ±SD (%); for inhibitory effect on uric acid transport (in words): 500 nM, in comparison with the control drug benzbromarone. On the procedure:
1. Construction of a HEK293 Cell Line with High Expression of hURAT1:
The plasmid pCMV6-hURAT1 was transfected into HEK293 cells, and then the stable strain was obtained by the G418 (final concentration of 500 μg/mL) resistance screening, which is the high expression of hURAT1 transporter membrane protein. […] The HEK293 cells are the human embryonic kidney cells with high transfection efficiency, and are a very commonly used engineering cell line for expressing exogenous genes.
2. To a coated 24-well plate was added 200 μl of 0.1 mg/mL poly-lysine per well and the plate was left overnight. Poly-lysine was removed from wells. The wells were cleaned thoroughly with sterile water and dried for use.
3. To the above coated 24-well plate was added HEK293-hURAT1 stable cells (2×10^5 cells per well). The cells were cultured at 37° C. under 5% CO2 for 3 days.
4. […] The solution was fully mixed to give HBSS (pH value: 7.4). The buffer was stored at −20° C.
5. The HBSS buffer was warmed to 37° C. in a water bath. Taken out the 24-well plate with HEK293-hURAT1 stable cells, removed the culture medium and washed cells with HBSS, then added 160 μL of HBSS and 20 μL test compound per well. The final concentration of tested compound per well is 500 nM. The blank control well contains only 180 μL of HBSS without tested compound. The plate was placed at room temperature for 10 min.
6. To each well was added 20 μL of 50 μM ^14C-Uric acid. The 24-well plate was placed at room temperature for 20 min.
7. The solution in each well was removed and the cells were washed with the pre-cooled HBSS buffer. To each well was added 0.2 M NaOH to dissolve the cells. The solution containing cell fragments was collected and the right amount of scintillation liquid was added.
8. The formula for calculating the inhibitory rate of uric acid transport for compounds was shown as below (Table 1), the CPM value of the tested compounds was represented by CPM(tested compound) and the CPM value of the blank control was represented by CPM(blank control).

Where [1] appears, read: 500 nM compound concentration, HEK293-hURAT1 transfection cell line, 14C-uric acid, mean of three tests ± SD.
Setting [2] is: HEK293-hURAT1 transfection cell line.

The record followed here is patent USRE50083E1, “URAT1 inhibitor and use thereof” (Jiangsu Atom Bioscience and Pharmaceutical Co., Ltd., priority 2016, dated 2024).

Where two headings read alike, the source gives them in different places.

With `CCc1nc2cc(C(F)(F)F)ccn2c1C(O)c1cc(Br)c(O)c(Br)c1` (stereo not shown) [Compound 41, 2,6-dibromo-4-{[2-ethyl-7-(trifluoromethyl)-imidazo[1,2-a]pyridine-3-yl]hydroxymethyl}phenol], the inhibition at 0.5 µM under setting [1] was 37.4 ± 5.52%. `CCc1nc2ccccn2c1C(O)c1ccc(O)c(C#N)c1` (stereo not shown) [Compound 21, 5-[(2-ethylimidazo[1,2-a]pyridine-3-yl)hydroxymethyl]-2-hydroxybenzonitrile]: the inhibition at 0.5 µM under setting [1] worked out at 33 ± 7.33%. Take `CCc1nc2cnccn2c1C(O)c1cc(Br)c(O)c(Br)c1` (stereo not shown) [Compound 23, 2,6-dibromo-4-[(2-ethylimidazo[1,2-a]pyrazine-3-yl)-hydroxymethyl]phenol]: under setting [1], the inhibition at 0.5 µM came to 50.2 ± 1.02%. Also, the “inhibitory effect on uric acid transport (in words)” value (shortened to “inhibitory effect”) under setting [2] is listed as “very good inhibitory effects”. Turning to `CCc1nc2ccccn2c1C(O)c1cc(Br)c(O)c(C#N)c1` (stereo not shown) [Compound 20, 3-bromo-5-[(2-ethylimidazo[1,2-a]pyridine-3-yl)-hydroxymethyl]-2-hydroxybenzonitrile], the inhibition at 0.5 µM under setting [1] worked out at 62.1 ± 1.26%. Besides, under setting [2], the “inhibitory effect” value is given as “very good inhibitory effects”. On to `CCc1nc2cc(OC)ccn2c1C(O)c1cc(Br)c(O)c(Br)c1` (stereo not shown) [Compound 64, 2,6-dibromo-4-{(2-ethyl-7-methoxyimidazo[1,2-a]-pyridine-3-yl)hydroxymethyl}phenol], for which the inhibition at 0.5 µM under setting [1] was 39.9 ± 5.34%. Consider `CCc1nc2ncccn2c1C(=O)c1cc(Br)c(O)c(Br)c1` [Compound 4, (3,5-dibromo-4-hydroxyphenyl)(2-ethylimidazo[1,2-a]-pyrimidine-3-yl)methanone], for which the inhibition at 0.5 µM under setting [1] stood at 50 ± 5.38%. Same read-out and setting: with `CCc1nn2ccccc2c1C(O)c1cc(Br)c(O)c(Br)c1` (stereo not shown) [Compound 35, 2,6-dibromo-4-[(2-ethylpyrazolo[1,5-a]pyridine-3-yl)-hydroxymethyl]phenol] the figure was 36.3 ± 1.79%; with `CCc1nc2ccccn2c1C(O)c1cc(C)c(O)c(Br)c1` (stereo not shown) [Compound 54, 2-bromo-4-(2-ethylimidazo[1,2-a]pyridine-3-yl)-hydroxymethyl-6-methylphenol], 42.9 ± 3.44%.

As to `CCc1nc2cnccn2c1C(=O)c1cc(Br)c(O)c(Br)c1` [Compound 12, (3,5-dibromo-4-hydroxyphenyl)(2-ethylimidazo[1,2-a]-pyrazine-3-yl)methanone], the inhibition at 0.5 µM under setting [1] stood at 51.31 ± 0.16%. In addition, the “inhibitory effect” value under setting [2] is reported as “very good inhibitory effects”. As to `CCc1nc2ccc(F)cn2c1C(O)c1cc(F)c(O)c(Br)c1` (stereo not shown) [Compound 28, 2-bromo-4-[(2-ethyl-6-fluoroimidazo[1,2-a]pyridine-3-yl)hydroxymethyl]-6-fluorophenol], the inhibition at 0.5 µM under setting [1] was 41.2 ± 1.92%. Take `CCc1oc2ccccc2c1C(=O)c1cc(Br)c(O)c(Br)c1` [Benzbromarone, (3,5-dibromo-4-hydroxy-'phenyl)(2-ethylbenzofuran-3-yl)-methanone, reference compound]: the inhibition at 0.5 µM was 54.8 ± 5.12%. For the compound `CCc1oc2ccccc2c1C(O)c1cc(Br)c(O)c(Br)c1` (stereo not shown) [Compound 42, 2,6-dibromo-4-[(2-ethylbenzofuran-3-yl)-hydroxymethyl]phenol], the inhibition at 0.5 µM is 37.4 ± 2.36%. As to `CCc1nc2ccc(Br)cn2c1C(O)c1cc(Br)c(O)c(Br)c1` (stereo not shown) [Compound 40, 2,6-dibromo-4-[(6-bromo-2-ethylimidazo[1,2-a]-pyridine-3-yl)hydroxymethyl]phenol], under setting [1], the inhibition at 0.5 µM was found to be 51.7 ± 2.43%. The “inhibitory effect” value under setting [2] is listed as “very good inhibitory effects”. For `CCc1nc2sccn2c1C(O)c1cc(Br)c(O)c(Br)c1` (stereo not shown) [Compound 22, 2,6-dibromo-4-[(6-ethylimidazo[2,1-b]thiazole-5-yl)-hydroxymethyl]phenol], under setting [1], the inhibition at 0.5 µM was 48.2 ± 3.86%. Still for that read-out and setting: to `CCc1oc2ccccc2c1C(OC)c1cc(Br)c(O)c(Br)c1` (stereo not shown) [Compound 58, 2,6-dibromo-4-[(2-ethylbenzofuran-3-yl)(methoxy)-methyl]phenol] belongs 48.7 ± 5.61%. For the compound `CCc1nc2sccn2c1C(=O)c1cc(Br)c(O)c(Br)c1` [Compound 8, (3,5-dibromo-4-hydroxyphenyl)(6-ethylimidazo[2,1-b]-thiazole-5-yl)methanone], the inhibition at 0.5 µM under setting [1] stood at 55.2 ± 3.94%. Further, under setting [2], the “inhibitory effect” value was “very good inhibitory effects”. `CCc1nc2scnn2c1C(=O)c1cc(Br)c(O)c(Br)c1` [Compound 49, (3,5-dibromo-4-hydroxyphenyl)(6-ethylimidazo-[2,1-b][1,3,4]thiadiazole-5-yl)methanone]: the inhibition at 0.5 µM under setting [1] was 31.91 ± 0.23%.
